Legend:
Assay type in all cases: biochemical
CK2 = target: T1, CK2 (Homo sapiens, UniProt P68400); test: KinaseProfiler selectivity: CK2
T1 construct: purchased Millipore Co. Ltd. (KinaseProfiler service)
Procedure: (§1) […]; The selectivity of JTE-052 for other kinases was assessed using KinaseProfiler™ (Millipore Co. Ltd.). […].

EGFR = target: T2, EGFR (Homo sapiens, UniProt P00533); test: KinaseProfiler selectivity: EGFR
T2 construct: purchased Millipore Co. Ltd. (KinaseProfiler service)
Procedure: as §1

Lyn = target: T3, Lyn (Homo sapiens, UniProt P07948); test: KinaseProfiler selectivity: Lyn
T3 construct: purchased Millipore Co. Ltd. (KinaseProfiler service)
T3 sequence (P07948 whole entry, species assumed): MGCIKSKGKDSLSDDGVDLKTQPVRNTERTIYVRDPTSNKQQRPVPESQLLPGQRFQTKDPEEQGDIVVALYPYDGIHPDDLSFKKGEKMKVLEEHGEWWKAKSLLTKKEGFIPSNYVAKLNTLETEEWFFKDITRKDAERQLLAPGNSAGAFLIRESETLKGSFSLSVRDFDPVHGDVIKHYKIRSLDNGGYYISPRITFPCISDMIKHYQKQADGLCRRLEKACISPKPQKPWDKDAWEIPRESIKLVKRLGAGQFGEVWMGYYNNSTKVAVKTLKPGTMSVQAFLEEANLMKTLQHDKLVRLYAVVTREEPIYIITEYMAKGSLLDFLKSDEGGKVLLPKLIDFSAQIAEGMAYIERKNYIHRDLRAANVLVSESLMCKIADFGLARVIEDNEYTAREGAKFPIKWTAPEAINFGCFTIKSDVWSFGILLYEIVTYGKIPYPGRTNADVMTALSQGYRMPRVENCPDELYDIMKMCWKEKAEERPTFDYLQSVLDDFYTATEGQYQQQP
Procedure: as §1

JNK3 = target: T4, JNK3 (Homo sapiens, UniProt P53779); test: KinaseProfiler selectivity: JNK3
T4 construct: purchased Millipore Co. Ltd. (KinaseProfiler service)
T4 sequence (P53779 whole entry, species assumed): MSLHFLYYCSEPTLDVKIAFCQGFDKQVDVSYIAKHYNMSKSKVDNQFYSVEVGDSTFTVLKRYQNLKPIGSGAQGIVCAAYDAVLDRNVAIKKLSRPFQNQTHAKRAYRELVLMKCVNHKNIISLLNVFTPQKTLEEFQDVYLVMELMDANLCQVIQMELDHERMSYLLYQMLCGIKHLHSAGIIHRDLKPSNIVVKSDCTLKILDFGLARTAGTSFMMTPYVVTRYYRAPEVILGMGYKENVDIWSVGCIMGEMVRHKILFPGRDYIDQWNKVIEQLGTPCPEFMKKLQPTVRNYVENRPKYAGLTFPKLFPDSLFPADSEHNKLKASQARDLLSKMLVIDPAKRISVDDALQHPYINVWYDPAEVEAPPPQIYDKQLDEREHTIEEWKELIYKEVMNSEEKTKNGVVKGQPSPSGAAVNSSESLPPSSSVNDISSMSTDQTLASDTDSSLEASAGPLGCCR
Procedure: as §1

cSRC = target: T5, cSRC (Homo sapiens, UniProt P12931); test: KinaseProfiler selectivity: cSRC
T5 construct: purchased Millipore Co. Ltd. (KinaseProfiler service)
T5 sequence (P12931 whole entry, species assumed): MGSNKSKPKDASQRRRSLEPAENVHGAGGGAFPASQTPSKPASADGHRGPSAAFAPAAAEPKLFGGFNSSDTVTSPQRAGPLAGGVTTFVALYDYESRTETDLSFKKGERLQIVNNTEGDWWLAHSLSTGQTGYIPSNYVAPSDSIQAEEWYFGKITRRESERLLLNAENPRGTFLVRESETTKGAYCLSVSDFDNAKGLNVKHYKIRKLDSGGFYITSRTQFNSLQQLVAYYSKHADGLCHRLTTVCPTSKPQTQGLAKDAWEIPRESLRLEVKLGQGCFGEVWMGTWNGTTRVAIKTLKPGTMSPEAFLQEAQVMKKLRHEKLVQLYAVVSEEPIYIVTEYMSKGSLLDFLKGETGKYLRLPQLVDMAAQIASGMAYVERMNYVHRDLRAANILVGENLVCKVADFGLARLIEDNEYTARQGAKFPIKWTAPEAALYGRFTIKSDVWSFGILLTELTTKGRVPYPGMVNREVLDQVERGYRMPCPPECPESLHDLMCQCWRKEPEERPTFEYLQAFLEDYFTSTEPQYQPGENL
Procedure: as §1

PKCα = target: T6, PKCα (Homo sapiens, UniProt P17252); test: KinaseProfiler selectivity: PKCα
T6 construct: purchased Millipore Co. Ltd. (KinaseProfiler service)
Procedure: as §1

Measured: IC50

T1 sequence (P68400 whole entry): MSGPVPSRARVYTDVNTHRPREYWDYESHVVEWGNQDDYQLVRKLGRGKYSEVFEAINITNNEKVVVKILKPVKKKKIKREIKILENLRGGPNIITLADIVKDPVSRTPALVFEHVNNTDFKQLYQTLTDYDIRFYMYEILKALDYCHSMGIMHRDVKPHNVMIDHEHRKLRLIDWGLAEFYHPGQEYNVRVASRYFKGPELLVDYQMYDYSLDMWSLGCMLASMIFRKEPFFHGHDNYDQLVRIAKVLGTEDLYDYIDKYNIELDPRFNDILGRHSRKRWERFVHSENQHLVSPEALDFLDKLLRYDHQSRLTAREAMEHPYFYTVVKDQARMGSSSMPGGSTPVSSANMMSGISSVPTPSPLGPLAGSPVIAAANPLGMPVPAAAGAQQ
T1 sequence (P67870 whole entry partner): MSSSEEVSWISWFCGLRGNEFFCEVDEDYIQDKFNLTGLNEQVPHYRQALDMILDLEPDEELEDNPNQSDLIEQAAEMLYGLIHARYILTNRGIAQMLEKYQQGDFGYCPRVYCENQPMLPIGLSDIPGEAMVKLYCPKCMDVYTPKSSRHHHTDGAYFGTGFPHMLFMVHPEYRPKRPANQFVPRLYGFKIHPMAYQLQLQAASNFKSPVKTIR
T2 sequence (P00533 25-1210, species assumed): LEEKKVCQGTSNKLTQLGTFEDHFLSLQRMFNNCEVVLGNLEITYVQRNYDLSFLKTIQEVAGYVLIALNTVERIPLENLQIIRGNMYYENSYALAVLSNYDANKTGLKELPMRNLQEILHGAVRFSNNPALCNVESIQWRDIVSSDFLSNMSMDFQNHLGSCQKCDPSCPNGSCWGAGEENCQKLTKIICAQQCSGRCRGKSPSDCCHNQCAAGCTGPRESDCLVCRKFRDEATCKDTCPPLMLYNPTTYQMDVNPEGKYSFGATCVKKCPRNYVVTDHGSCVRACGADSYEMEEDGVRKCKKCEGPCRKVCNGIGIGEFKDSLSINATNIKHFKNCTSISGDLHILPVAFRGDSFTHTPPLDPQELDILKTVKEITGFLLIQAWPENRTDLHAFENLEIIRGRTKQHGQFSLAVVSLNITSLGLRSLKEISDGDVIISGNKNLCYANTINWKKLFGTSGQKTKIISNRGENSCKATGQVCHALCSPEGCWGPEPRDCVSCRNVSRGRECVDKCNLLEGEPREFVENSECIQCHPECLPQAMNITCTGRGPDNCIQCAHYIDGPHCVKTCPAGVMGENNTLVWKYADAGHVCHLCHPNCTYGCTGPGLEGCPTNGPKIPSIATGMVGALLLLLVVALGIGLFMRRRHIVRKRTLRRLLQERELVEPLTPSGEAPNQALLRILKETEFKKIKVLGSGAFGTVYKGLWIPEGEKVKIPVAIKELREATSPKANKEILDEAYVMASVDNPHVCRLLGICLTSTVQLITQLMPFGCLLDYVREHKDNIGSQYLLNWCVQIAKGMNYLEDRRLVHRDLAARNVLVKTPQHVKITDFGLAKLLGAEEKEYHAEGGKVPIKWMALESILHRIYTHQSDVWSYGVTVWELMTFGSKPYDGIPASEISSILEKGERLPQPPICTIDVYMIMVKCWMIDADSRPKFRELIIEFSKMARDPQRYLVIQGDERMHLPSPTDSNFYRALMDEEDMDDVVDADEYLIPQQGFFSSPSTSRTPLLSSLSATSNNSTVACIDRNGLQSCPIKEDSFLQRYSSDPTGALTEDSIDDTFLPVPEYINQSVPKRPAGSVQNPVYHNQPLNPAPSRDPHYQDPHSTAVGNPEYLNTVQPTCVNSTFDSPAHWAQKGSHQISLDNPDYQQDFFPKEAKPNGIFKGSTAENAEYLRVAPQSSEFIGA

C[C@H]1CN(C(=O)CC#N)[C@]12CCN(c1ncnc3[nH]ccc13)C2 [JTE-052]
> 1000 nM: all assays above

— article PMC4286029 (Inflammation Research, 2014)
